Laboratory results as given in US6787354B2, “Methods for the early diagnosis of ovarian cancer” (The Board of Trustees of The University of Arkansas, priority 1997, dated 2004).
Ends that are not written are not given here.

Test system: peptide-loaded lymphoblastoid cell lines (LCL)
Assay: 51Cr-release cytotoxicity assay with peptide-specific CD8+ CTL
Type: cell-based, human
Protocol: Monocyte-derived dendritic cells were generated from peripheral blood drawn from normal adult donors of the appropriate HLA type. Adherent monocytes were cultured in AIM-V (Gibco-BRL) supplemented with GM-CSF and IL-4 according to standard techniques (Santin et al, 2000, 2001). After 5-6 days, dendritic cell maturation was induced by addition of PGE2, IL-1β and TNFα for a further 48 h.
Mature dendritic cells were loaded with peptide (2×10^6 dendritic cells with 50 μg/ml peptide in 1 ml serum-free AIM-V medium for 2 h at 37° C.) and washed once prior to culture with 1×10^6/ml peripheral blood mononuclear cells (PBMC) in AIM-V or AIM-V plus 5% human AB serum. The PBMC:DC ratio was between 20:1 and 30:1. After 7 days, responder T cells were restimulated with peptide-loaded, irradiated autologous dendritic cells or peripheral blood mononuclear cells at responder:stimulator ratios between 10:1 and 20:1 or 1:1 and 1:10 respectively. At this point, cultures were supplemented with recombinant human IL-2 (10-100 U/ml), and fed with 50-75% changes of fresh medium plus IL-2 every 2-4 days. T cell lines were established and maintained by peptide restimulation every 14-21 days. Responder CD8^+T cells were purified by positive selection with anti-CD8-coupled magnetic beads (Dynal, Inc.) after the 2nd or 3rd antigen stimulation.
Peptide-specific cytotoxicity was tested in standard 5-6 h microwell ^51Cr-release assays (Nazaruk et al, 1998). Autologous EBV-transformed lymphoblastoid cell lines (LCL) were loaded with peptide (50 μg/ml, 1 h at 37° C.) and subsequently ^51Cr-labeled (50 μCi in 200-300 μl, 1 h at 37° C.). Peptide-loaded ^51Cr-labeled LCL were incubated with CD8^+T cells at effector-target ration between 5:1 and 1.25:1. Cytotoxicity was recorded as percentage ^51Cr released into culture supernatants.

## GRWPWQVSL [GRWPWQVSL]
  Blocking of cytotoxicity against peptide-loaded LCL by MAb specific for a non-polymorphic HLA class I determinant: could be blocked

## SLGRWPWQV [SLGRWPWQV]
  Blocking of cytotoxicity against peptide-loaded LCL by MAb specific for a non-polymorphic HLA class I determinant: could be blocked
  Blocking of cytotoxicity by MAb specific for HLA A2.1: blocked
